Patent US8575170B2, “Flurbiprofen analogs and methods of use in treating cancer” (The Regents of the Unversity of Colorado, a body corporate, priority 2010, dated 2013)
Read-outs that look alike come from different tables or passages of the source.

Legend:
[1] = Solubility of flurbiprofen analog compounds; assay type: physicochemical; conditions: medium in which the compound is soluble, Table 5
[2] = system: H2122; assay: MTT cell viability, H2122 lung carcinoma cell line; assay type: cell-based; conditions: IC50 values for the H2122 lung carcinoma cell line, Table 5, read-out: H2122 In vitro
Protocol: The ability of the flurbiprofen analog compounds of the invention to inhibit cancer cell growth and survival (viability) in a variety of cancer lines was examined in a standard MTT assay for cell viability, as detailed in Example 2.
The IC50 values given in Tables 1-4 were measured using the B1031 ([…]) compound) shown in Section IIB above. To confirm the generality of the results with respect to other fluribprofen analogs prepared in accordance with the invention, IC50 values for the other 11 analog compounds given in Section IIB were similarly determined for the H2122 lung carcinoma cell line.
The studies reported in Tables 1-3 above were carried out by incubating the cells in the test compound for four days, under standard cell-culture conditions, and measuring cell survival on day 5 (see Example 2).
Cell growth and survival following treatment with N—[(S)-2-Fluoro-α-methyl-4-biphenylacetyl]-[L-(4-phenylphenyl)alanine]-N-(2,2,6,6-tetramethyl-4-piperidinyl)amide (GCBH-110=B1031; (S)-Fmba-L-Bip-Atmp) were measured by a rapid colorimetric assay based on the tetrazolium salt MTT (3-(4,5-dimethylthiazol-2-yl)-2,5-diphenyl tetrazolium bromide) (Mosmann, J. Immunol. Methods 65: 55-63, 1983, with minor modifications).
Briefly, approximately 1,000-5,000 cancer cells from 15 different cancer cells lines were plated in 100 μL of growth medium in 96-well flat-bottomed microtiter plates. Cells were incubated overnight to allow recovery. Compounds to be tested were added to the cells in triplicate in a range of concentrations and the cells were incubated at 37° C., 5% CO2, with 100% humidity. Control cells were treated in the same way without antagonists. […] Plates were incubated for 4 days, allowing sufficient time for cell replication and compound-induced cell death to occur. On day 5, 25 μL of a 2 mg/mL solution of MTT (Sigma) dissolved in RMPI-1640 was added to each well. The plate was incubated for 4 h at 37° C. The supernatant liquid was removed and the blue formazan complex was dissolved by adding 100 μL of 0.02 N HCl in 75% isopropanol to all wells. Absorbance was immediately determined using a scanning multiwell plate reader.

[3] = system: HT-29 colon cancer cells; assay: Loss in cell viability, HT-29 colon cancer cells; assay type: cell-based; conditions: Homo sapiens; HT-29 colon cancer cell, FIG. 6A
Protocol: FIGS. 6A and 6B show the loss in cell viability in HT-29 colon cancer cells, in response to increasing concentrations of GH 502 (GCBH 118) (FIG. 6A), and the effect of various treatments, including increasing concentration of GH501 (GCBH 110) on U251 malignant glioma cells and BTIC EF12 brain tumor initiating stem cells (FIG. 6B).
The study shown in FIG. 6A examined the effect of GCBH-118 (GH502) on an HT-29 colon cancer cell, showing an IC50 value of about 1 μM. […] The graph indicates an IC50 value for the B1031 compound against the U251 brain cancer cell line of between 2 and 10 μM.

[4] = system: H2122 lung carcinoma solid tumor xenograft; assay: H2122 lung carcinoma xenograft in nude mice; assay type: in vivo, athymic nude mice; conditions: 5 mg/kg daily intraperitoneal, from day 7 after implantation, over the 25 days of treatment, FIG. 11
Protocol: The efficacy of the treatment method was examined for both lung carcinoma-cell tumors and pancreatic-cell tumors implanted in athymic mice, according to the method detailed in Example 3. In the first study, mice injected with lung-carcinoma cells were treated, seven days after cancer-cell implantation, by daily injection of 5 mg/kg body weight of one of three different flurbiprofen analog compounds: B1005 (GCBH 104); B1020 (GCBH 108) and B1031 (GCBH 110). Tumor size was measured by calipers at the days indicated in FIG. 11, with final tumor weight and volume being determined by extracting the tumor from the sacrificed animals.
Compounds having high in vitro cytotoxic activity were tested against implanted tumors in vivo. In one study, athymic nude mice were implanted subcutaneously with suspensions of approximately 2 million H2122 lung carcinoma cells, in Matrigel suspension. On the seventh day after tumor implantation, groups of 5 mice bearing implants were injected intraperitoneally with the compounds being tested at 5 mg/kg/every day; control animals were injected with an equal volume of isotonic saline. […] Tumor size was measured with a caliper three times per week. Tumor volume was calculated by the formula: Volume (cc)=3.14×(length)×(width)^2/6
At autopsy, tumors were removed and weighed. Tumor inhibition was calculated on both weight and measurement basis.

| Solubility [1] | IC50 ([2]; Homo sapiens, NCI-H2122) | IC50 [2] | IC50 [3] | SMILES | inhibition of growth of the lung carcinoma cell line H2122 tumor [4] |
| --- | --- | --- | --- | --- | --- |
| 50% DMSO | 5400 nM |  |  | C[C@H](C(=O)NC(CC(=O)NC1CC(C)(C)NC(C)(C)C1)c1ccc(-c2ccccc2)cc1)c1ccc(-c2ccccc2)c(F)c1 (stereo partly drawn) [GCBH-120, N—[(S)-2-Fluoro-α-methyl-4-biphenylacetyl]-[R,S,-β-(p-biphenyl)-β-alanine]-N-(2,2,6,6-tetramethyl-4-piperidinyl)amide] |  |
| 50% DMSO |  | 1600 nM |  | CC(C(=O)N[C@@H](Cc1ccc(OCc2c(Cl)cccc2Cl)cc1)C(=O)NC1CC(C)(C)NC(C)(C)C1)c1ccc(-c2ccccc2)c(F)c1 (stereo partly drawn) [GCBH-112, N—[(R,S)-2-Fluoro-α-methyl-4-biphenylacetyl]-[O-(2,6,dichlorobenzyl)-L-tyrosine]-N-(2,2,6,6-tetramethyl-4-piperidinyl)amide] |  |
| 50% DMSO | 1200 nM |  |  | CC(C(=O)N[C@H](C(=O)NC1CC(C)(C)NC(C)(C)C1)C(c1ccccc1)c1ccccc1)c1ccc(-c2ccccc2)c(F)c1 (some centres unmarked) [GCBH-106] |  |
| 20% DMSO | 2500 nM |  |  | C[C@H](C(=O)N[C@@H](Cc1ccc(F)cc1)C(=O)NC1CC(C)(C)NC(C)(C)C1)c1ccc(-c2ccccc2)c(F)c1 [GCBH-124, N—[(S)-2-Fluoro-α-methyl-4-biphenylacetyl]-[(4-fluoro)-L-phenylalanine]-N-(2,2,6,6-tetramethyl-4-piperidinyl)amide] |  |
| 50% DMSO | 1200 nM |  |  | CC(C(=O)N[C@@H](Cc1csc2ccccc12)C(=O)NC1CC(C)(C)NC(C)(C)C1)c1ccc(-c2ccccc2)c(F)c1 (stereo partly drawn) [GCBH-114, N—[(R,S)-2-Fluoro-α-methyl-4-biphenylacetyl]-(L-3-benzothienylalanine)-N-(2,2,6,6-tetramethyl-4-piperidinyl)amide] |  |
|  | 1400 nM |  | ~1000 nM | CC(C(=O)N[C@@H](Cc1cccnc1)C(=O)NC1CC(C)(C)NC(C)(C)C1)c1ccc(-c2ccccc2)c(F)c1 (stereo partly drawn) [GCBH-118, N—[(R,S)-2-Fluoro-α-methyl-4-biphenylacetyl]-(β-3-pyridyl-L-alanine)-N-(2,2,6,6-tetramethyl-4-piperidinyl)amide] |  |
|  |  |  |  | CC(C(=O)N[C@@H](Cc1ccc(-c2ccccc2)cc1)C(=O)NC1CC(C)(C)NC(C)(C)C1)c1ccc(-c2ccccc2)c(F)c1 (stereo partly drawn) [GCBH-104, N—[(R,S)-2-Fluoro-α-methyl-4-biphenylacetyl]-[L-(4-phenylphenyl)alanine]-N-(2,2,6,6-tetramethyl-4-piperidinyl)amide] | 74% |
| 20% DMSO |  | 8000 nM |  | CC(C(=O)N[C@@H](Cc1ccc(OCc2c(Cl)cccc2Cl)cc1)C(=O)NCCCN1CCN(C)CC1)c1ccc(-c2ccccc2)c(F)c1 (stereo partly drawn) [GCBH-102, N—[(R,S)-2-Fluoro-α-methyl-4-biphenylacetyl]-[O-(2,6,dichlorobenzyl)-L-tyrosine]-N-[3-(4-methyl-1-piperizinyl)propyl]amide] |  |
| 50% DMSO | 2100 nM |  |  | C[C@H](C(=O)N[C@@H](Cc1ccc(C(F)(F)F)cc1)C(=O)NC1CC(C)(C)NC(C)(C)C1)c1ccc(-c2ccccc2)c(F)c1 [GCBH-122, N—[(S)-2-Fluoro-α-methyl-4-biphenylacetyl]-[(4-trifluoromethyl)-L-phenylalanine]-N-(2,2,6,6-tetramethyl-4-piperidinyl)amide] |  |
| 20% DMSO | 2300 nM |  |  | CC(C(=O)N[C@@H](CC1CCCCC1)C(=O)NC1CC(C)(C)NC(C)(C)C1)c1ccc(-c2ccccc2)c(F)c1 (stereo partly drawn) [GCBH-116, N—[(R,S)-2-Fluoro-α-methyl-4-biphenylacetyl]-(β-cyclohexyl-L-alanine)-N-(2,2,6,6-tetramethyl-4-piperidinyl)amide] |  |
| 50% DMSO | 4000 nM |  |  | CC(C(=O)N[C@@H](Cc1ccc(OCc2c(Cl)cccc2Cl)cc1)C(=O)NC1CC(C)(C)NC(C)(C)C1)c1ccc(-c2ccccc2)c(F)c1 (stereo partly drawn) [GCBH-100, N—[(R,S)-2-Fluoro-α-methyl-4-biphenylacetyl]-[O-(2,6,dichlorobenzyl)-L-tyrosine]-N-(2,2,6,6-tetramethyl-4-piperidinyl)amide] |  |

| SMILES | Solubility [1] | IC50 ([2]; Homo sapiens, NCI-H2122) | IC50 [2] | IC50 [3] | inhibition of growth of the lung carcinoma cell line H2122 tumor [4] |
| --- | --- | --- | --- | --- | --- |
| C[C@H](C(=O)N[C@@H](Cc1ccc(N(CCCl)CCCl)cc1)C(=O)NC1CC(C)(C)NC(C)(C)C1)c1ccc(-c2ccccc2)c(F)c1 [GCBH-126] | 20% DMSO | 3800 nM |  |  |  |
